Measurements taken from patent US11505528B2, “Inhibitors of microbially induced amyloid” (Axial Therapeutics, Inc., priority 2017, dated 2022).
Read-outs that look alike come from different tables or passages of the source.

Legend:
E. coli CsgA = target: T1, E. coli CsgA (Escherichia coli, UniProt P28307); experiment: Thioflavin T cell-free assay of CsgA aggregation; type: biochemical
T1 construct: 6xHis (C); made in house; host or cells: E. coli NEB 3016 slyD::kan

human α-synuclein = target: T2, human α-synuclein (Homo sapiens, UniProt P37840); experiment: Thioflavin T cell-free assay of α-synuclein aggregation; type: biochemical; conditions: α-synuclein 50 μM, compounds at 20-50 μM, data from 36 hours; for Inhibition of Aggregation, αSyn: ThT fluorescence, negative = potentiation
T2 construct: the full-length gene for untagged human α-synuclein was inserted; made in house; host or cells: E. coli BL21 (DE3)

[1] = read-out: Inhibition of Aggregation, CsgA
[2] = read-out: Inhibition of Aggregation, CsgA (compound activity range)

T1 sequence (P28307 23-151): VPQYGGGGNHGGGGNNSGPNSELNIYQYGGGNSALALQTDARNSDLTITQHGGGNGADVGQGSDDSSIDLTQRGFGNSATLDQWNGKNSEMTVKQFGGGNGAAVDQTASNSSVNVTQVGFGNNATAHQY

Compound | inhibition at 20 µM (E. coli CsgA; [1]) [%] | inhibition at 20 µM (E. coli CsgA; [2]) [%] | Inhibition of Aggregation, αSyn (human α-synuclein) [%] | Inhibition of Aggregation, αSyn (compound activity range) (human α-synuclein)
COc1cc(NC(=O)c2c(NC(=O)c3cc(OC)c(OC)c(OC)c3)sc3c2CCCC3)cc(OC)c1OC [Compound 1, 2-(3,4,5-trimethoxybenzamido)-N-(3,4,5-trimethoxyphenyl)-4,5,6,7-tetrahydrobenzo[b]thiophene-3-carboxamide] | 8 | -10 to 10 | – | –
COc1cc(OC)cc(C(=O)Nc2sc3c(c2C(=O)Nc2cc(OC)c(OC)c(OC)c2)CCCC3)c1 [Compound 3, 2-(3,5-dimethoxybenzamido)-N-(3,4,5-trimethoxyphenyl)-4,5,6,7-tetrahydrobenzo[b]thiophene-3-carboxamide] | -11 | < -10 | – | –
O=C(Nc1sc2c(c1C(=O)Nc1cc(O)c(O)c(O)c1)CCCC2)c1cc(O)cc(O)c1 [Compound 4, 2-(3,5-dihydroxybenzamido)-N-(3,4,5-trihydroxyphenyl)-4,5,6,7-tetrahydrobenzo[b]thiophene-3-carboxamide] | 43 | 30 to 60 | – | –
COc1cc(NC(=O)c2c(NC(=O)c3cc(OC)c(OC)c(OC)c3)sc3c2CCCC3)cc(OC)c1 [Compound 5, N-(3,5-dimethoxyphenyl)-2-(3,4,5-trimethoxybenzamido)-4,5,6,7-tetrahydrobenzo[b]thiophene-3-carboxamide] | -4 | -10 to 10 | 22 | (+) ((+) is between 10% to 30% inhibition)
COc1cc(C(=O)Nc2sc3c(c2C(=O)N(C)c2cc(OC)c(OC)c(OC)c2)CCCC3)cc(OC)c1OC [Compound 7, N-methyl-2-(3,4,5-trimethoxybenzamido)-N-(3,4,5-trimethoxyphenyl)-4,5,6,7-tetrahydrobenzo[b]thiophene-3-carboxamide] | 2 | -10 to 10 | – | –
O=C(Nc1sc2c(c1C(=O)Nc1ccccc1)CCCC2)c1cc(O)c(O)c(O)c1 [Compound 8, N-phenyl-2-(3,4,5-trihydroxybenzamido)-4,5,6,7-tetrahydrobenzo[b]thiophene-3-carboxamide] | 13 | 10 to 30 | 18 | (+) ((+) is between 10% to 30% inhibition)
COc1cc(C(=O)Nc2sc3c(c2C(=O)Nc2ccccc2)CCCC3)cc(OC)c1OC [Compound 9, N-phenyl-2-(3,4,5-trimethoxybenzamido)-4,5,6,7-tetrahydrobenzo[b]thiophene-3-carboxamide] | -33 | < -10 | – | –
COc1cc(NC(=O)c2c(NC(=O)c3ccccc3)sc3c2CCCC3)cc(OC)c1OC [Compound 11, 2-benzamido-N-(3,4,5-trimethoxyphenyl)-4,5,6,7-tetrahydrobenzo[b]thiophene-3-carboxamide] | -24 | < -10 | – | –
COc1cc(C(=O)Nc2sc3c(c2C(N)=O)CCCC3)cc(OC)c1OC [Compound 12, 2-(3,4,5-trimethoxybenzamido)-4,5,6,7-tetrahydrobenzo[b]thiophene-3-carboxamide] | -23 | < -10 | – | –
COc1cc(NC(=O)c2c(N(C)C(=O)c3cc(OC)c(OC)c(OC)c3)sc3c2CCCC3)cc(OC)c1OC [Compound 13, 2-(3,4,5-trimethoxy-N-methylbenzamido)-N-(3,4,5-trimethoxyphenyl)-4,5,6,7-tetrahydrobenzo[b]thiophene-3-carboxamide] | -16 | < -10 | – | –
NC(=O)c1c(NC(=O)c2cc(O)c(O)c(O)c2)sc2c1CCCC2 [Compound 15, 2-(3,4,5-trihydroxybenzamido)-4,5,6,7-tetrahydrobenzo[b]thiophene-3-carboxamide] | 52 | 30 to 60 | – | –
Nc1sc2c(c1C(=O)Nc1cc(O)c(O)c(O)c1)CCCC2 [Compound 16, 2-amino-N-(3,4,5-trihydroxyphenyl)-4,5,6,7-tetrahydrobenzo[b]thiophene-3-carboxamide] | 31 | 30 to 60 | – | –
COc1cc(C(=O)Nc2sc3c(c2C(=O)O)CCCC3)cc(OC)c1OC [Compound 17, 2-(3,4,5-trimethoxybenzamido)-4,5,6,7-tetrahydrobenzo[b]thiophene-3-carboxylic acid] | 18 | 10 to 30 | – | –
O=C(Nc1sc2c(c1C(=O)Nc1cc(O)c(O)c(O)c1)CCCC2)c1ccccc1 [Compound 18, 2-benzamido-N-(3,4,5-trihydroxyphenyl)-4,5,6,7-tetrahydrobenzo[b]thiophene-3-carboxamide] | 16 | 10 to 30 | – | –
COc1cc(OC)c2c(=O)c(C(=O)Nc3cc(OC)c(OC)c(OC)c3)c[nH]c2c1 [Compound 21, 5,7-dimethoxy-4-oxo-N-(3,4,5-trimethoxyphenyl)-1,4-dihydroquinoline-3-carboxamide] | 4 | -10 to 10 | −1 | (−) ((−) is between −10% to 10% inhibition)
O=C(Nc1cc(O)c(O)c(O)c1)c1c[nH]c2cc(O)cc(O)c2c1=O [Compound 22, 5,7-dihydroxy-4-oxo-N-(3,4,5-trihydroxyphenyl)-1,4-dihydroquinoline-3-carboxamide] | 58 | 30 to 60 | – | –

Compound | inhibition at 20 µM (E. coli CsgA; [1]) [%] | inhibition at 20 µM (E. coli CsgA; [2]) [%] | Inhibition of Aggregation, αSyn (human α-synuclein) [%] | Inhibition of Aggregation, αSyn (compound activity range) (human α-synuclein)
COc1cc(OC)c2c(=O)c(C(=O)Nc3ccccc3)c[nH]c2c1 [Compound 25, 5,7-dimethoxy-4-oxo-N-phenyl-1,4-dihydroquinoline-3-carboxamide] | -150 | < -10 | 17 | (+) ((+) is between 10% to 30% inhibition)
COc1cc2[nH]cc(C(=O)Nc3ccc(O)cc3)c(=O)c2c(OC)c1OC [Compound 29, N-(4-hydroxyphenyl)-5,6,7-trimethoxy-4-oxo-1,4-dihydroquinoline-3-carboxamide] | 9 | -10 to 10 | – | –
COc1cc2[nH]cc(C(=O)Nc3ccccc3)c(=O)c2c(OC)c1OC [Compound 30, 5,6,7-trimethoxy-4-oxo-N-phenyl-1,4-dihydroquinoline-3-carboxamide] | -56 | < -10 | – | –
COc1cc(OC)c2c(=O)c(C(=O)Nc3ccc(O)cc3)c[nH]c2c1 [Compound 31, N-(4-hydroxyphenyl)-5,7-dimethoxy-4-oxo-1,4-dihydroquinoline-3-carboxamide] | -20 | < -10 | – | –
O=C(Nc1ccccc1)c1c[nH]c2cc(O)c(O)c(O)c2c1=O [Compound 33, 5,6,7-trihydroxy-4-oxo-N-phenyl-1,4-dihydroquinoline-3-carboxamide] | 59 | 30 to 60 | 92 | (+++) ((+++) is greater than 60% inhibition)
COc1cc2[nH]cc(C(=O)Nc3ccc(O)c(F)c3)c(=O)c2c(OC)c1OC [Compound 34, N-(3-fluoro-4-hydroxyphenyl)-5,6,7-trimethoxy-4-oxo-1,4-dihydroquinoline-3-carboxamide] | -11 | < -10 | – | –
COc1cc(OC)c2c(=O)c(C(=O)N(C)c3cc(OC)c(OC)c(OC)c3)c[nH]c2c1 [Compound 35, 5,7-dimethoxy-N-methyl-4-oxo-N-(3,4,5-trimethoxyphenyl)-1,4-dihydroquinoline-3-carboxamide] | -53 | < -10 | – | –
COc1cc(-c2[nH]c3cc(OC)c(OC)c(OC)c3c(=O)c2C(=O)O)cc(OC)c1OC [Compound 36, 5,6,7-trimethoxy-4-oxo-2-(3,4,5-trimethoxyphenyl)-1,4-dihydroquinoline-3-carboxylic acid] | -47 | < -10 | – | –
COc1cc(OC)c2c(=O)c(C(=O)Nc3ccc(O)c(F)c3)c[nH]c2c1 [Compound 37, N-(3-fluoro-4-hydroxyphenyl)-5,7-dimethoxy-4-oxo-1,4-dihydroquinoline-3-carboxamide] | -17 | < -10 | – | –
O=C(Nc1ccc(O)cc1)c1c[nH]c2cc(O)c(O)c(O)c2c1=O [Compound 38, 5,6,7-trihydroxy-N-(4-hydroxyphenyl)-4-oxo-1,4-dihydroquinoline-3-carboxamide] | – | – | 14 | (+) ((+) is between 10% to 30% inhibition)
COc1cc2[nH]cc(C(=O)Nc3ccccc3O)c(=O)c2c(OC)c1OC [Compound 39, N-(2-hydroxyphenyl)-5,6,7-trimethoxy-4-oxo-1,4-dihydroquinoline-3-carboxamide] | -4 | -10 to 10 | – | –
COc1cc(NC(=O)c2c(-c3cc(OC)c(OC)c(OC)c3)[nH]c3cc(OC)c(OC)c(OC)c3c2=O)cc(OC)c1OC [Compound 40, 5,6,7-trimethoxy-4-oxo-N,2-bis(3,4,5-trimethoxyphenyl)-1,4-dihydroquinoline-3-carboxamide] | 15 | 10 to 30 | −12 | (−−) ((−−) is less than −10% inhibition)
O=C(Nc1ccccc1)c1c[nH]c2ccccc2c1=O [Compound 45, 4-oxo-N-phenyl-1,4-dihydroquinoline-3-carboxamide] | -18 | < -10 | – | –
O=C(Nc1cccc(O)c1)c1c[nH]c2ccccc2c1=O [Compound 46, N-(3-hydroxyphenyl)-4-oxo-1,4-dihydroquinoline-3-carboxamide] | -7 | -10 to 10 | – | –
O=C(Nc1cc(O)cc(O)c1)c1c[nH]c2cc(O)cc(O)c2c1=O [Compound 47, N-(3,5-dihydroxyphenyl)-5,7-dihydroxy-4-oxo-1,4-dihydroquinoline-3-carboxamide] | 13 | 10 to 30 | – | –
